Laboratory results published in US20120015901A1, “METHODS AND PREPARATIONS FOR PROTECTING CRITICALLY ILL PATIENTS” (priority 2009, published 2012).
Read-outs that look alike come from different tables or passages of the source.

How the values were obtained:
acute liver injury = settings: cited from earlier work
[1] = system: wild type yeast (BY4741) and null mutants; experiment: Yeast chronological aging, survival plating (clonogenicity); format: cell-based
Experimental: Experiments were carried out in BY4741 (MATa his3Δ1 leu2Δ0 met15Δ0 ura3Δ0) and respective null mutants, obtained from Euroscarf. The double mutant Δiki3Δsas3 was generated according to Gueldener at al. (2002) Nucleic Acids Res. 30, e23 by using gene-specific URA3-knockout cassette, amplified by PCR with pUG72 as template (Lovaas & Carlin (1991) Free Radic Biol Med 11, 455-46.). […] All spe1 double mutant strains were obtained through mating and sporulation of BY4741 Δspe1 with the respective BY4742 ([…]) single mutant strains. Single and double mutant strains were verified for correct gene deletion by PCR and further checked for consistent auxotrophies. […] Strains were grown at 28° C. on SC medium containing 0.17% yeast nitrogen base (Difco), 0.5% (NH4)2SO4 and 30 mg/l of all amino acids (except 80 mg/l histidine and 200 mg/l leucine), 30 mg/l adenine, and 320 mg/l uracil with 2% glucose (SCD). […] To construct NHP6A-EGFP in pUG35-Ura (giving rise to a C-terminally tagged chimeric fusion protein under control of the met25-Promotor) the insert was amplified by PCR using genomic DNA from BY4741 as template and cloned into pUG35 using the EcoRI restriction site. The EGFP-ATG8 construct in pUG36-Ura (N-terminally tagged fusion protein) was similarly generated, using EcoRI and ClaI restriction sites.
In case of experiments with Δspe1 (FIG. 24 A-E), all strains were inoculated to 5·10^4 cells/ml. […] Therefore, for calculation of survival rates in experiments using Δiki3Δsas3, cell numbers of each sample were determined after two pulse of sonication on ice with Sonifier 250 from Benson (Duty Cycle: 35; Output Control: 2.5). Tests for apoptotic (TUNEL and Annexin V staining) and necrotic (PI staining) markers as well as markers for oxidative stress (DHE staining) were performed as described in Dod et al. (1982) Eur J Biochem 121, 401-405). For quantifications using flow cytometry (BD FACSAria), 30,000 cells were evaluated and analyzed with BD FACSDiva software. Spermidine (S4139, Sigma, Austria) and putrescine (P5780, Sigma, Austria; 1 mM final concentration) were added to stationary cultures at day 1 of the aging experiments (24 h after inoculation). 1 M aqueous stock solution of spermidine was stored in one use aliquots at −20° C. for no longer than 1 month. For adjustment of extracellular pH (pHex) to 6 (±0.5), the required amount of sodium hydroxide was added 30 h after inoculation. The pHex was maintained at approximately 6 (±0.5) throughout the aging.

NCCCCN [putrescine, 1,4-diamino-butane]
effect on acute liver injury (acute liver injury; administered 2, 5 and 8 hours after injection of cadmium chloride): protective effect | effect on acute liver injury (acute liver injury; administered 12, 15 and 18 h after cadmium injection): did not provide a protective effect | chronological life span of polyamine depleted cells [1]: restored
